Data set [1] deals with A549. In words: Cytotoxicity against human A549 cells assessed as reduction in cell viability incubated for 48 hrs by MTT assay. It counts as functional, cell-based. The conditions noted are these: A549, 48 h. In general terms: Tetrazolium assays rely on reduction of a dye to a coloured formazan, in cell work by metabolically active cells.
The test system of the next data set is NCI-H460. In words: Cytotoxicity against human NCI-H460 cells assessed as reduction in cell viability incubated for 48 hrs by MTT assay. In kind it is functional, cell-based. As to conditions: NCI-H460, 48 h.
Data set [2] can be described thus: Cytotoxicity against rat Primary hepatocytes assessed as cell viability at 25 uM incubated for 12 hrs. In kind it is toxicity, cell-based, Hepatocyte. The conditions noted are these: read-out: Activity.
For data set [3], the system named is A549. The experiment in a line: Induction of cell cycle arrest in human A549 cells assessed as accumulation of cells at G2/M phase incubated for 48 hrs by PI staining based flow cytometry (reference value: 9.7 to 17.2%). It counts as functional.
For data set [4], the system named is A549. The experiment in a line: Induction of apoptosis in human A549 cells assessed as viable cells at 3 uM incubated for 48 hrs by AnnexinV-FITC/PI staining based flow cytometry (reference value: 91.5 to 92.9%). It counts as functional. The conditions noted are these: read-out: Activity. (In general: In flow cytometry, cells or beads pass a laser one at a time.)

Data set [5] concerns A549. The experiment in a line: Induction of apoptosis in human A549 cells assessed as early apoptotic cells at 3 uM incubated for 48 hrs by AnnexinV-FITC/PI staining based flow cytometry (reference value: 2.07 to 3.24%). It counts as functional.
Data set [6] has as its system A549. In words: Induction of apoptosis in human A549 cells assessed as late apoptotic cells at 3 uM incubated for 48 hrs by AnnexinV-FITC/PI staining based flow cytometry (reference value: 1.58 to 2.23%). In kind it is functional.
Data set [7] deals with A549. In words: Induction of apoptosis in human A549 cells assessed as necrotic cells at 3 uM incubated for 48 hrs by AnnexinV-FITC/PI staining based flow cytometry (reference value: 2.23 to 4.25%). It counts as functional.
Data set [8] deals with A549. In words: Induction of apoptosis in human A549 cells assessed as viable cells at 10 uM incubated for 48 hrs by AnnexinV-FITC/PI staining based flow cytometry (reference value: 91.5 to 92.9%). In kind it is functional. As to conditions: read-out: Activity.
In data set [9] the test system is A549. The experiment in a line: Induction of apoptosis in human A549 cells assessed as early apoptotic cells at 10 uM incubated for 48 hrs by AnnexinV-FITC/PI staining based flow cytometry (reference value: 2.07 to 3.24%). In kind it is functional.
Data set [10] deals with A549. The experiment in a line: Induction of apoptosis in human A549 cells assessed as late apoptotic cells at 10 uM incubated for 48 hrs by AnnexinV-FITC/PI staining based flow cytometry (reference value: 1.58 to 2.23%). In kind it is functional.
Data set [11] has as its system A549. The experiment in a line: Induction of apoptosis in human A549 cells assessed as necrotic cells at 10 uM incubated for 48 hrs by AnnexinV-FITC/PI staining based flow cytometry (reference value: 2.23 to 4.25%). In kind it is functional.
Data set [12] has as its system A549. The experiment in a line: Induction of apoptosis in human A549 cells assessed as increase in cleaved caspase-3 expression level at 3 to 10 uM incubated for 48 hrs by western blot analysis. It counts as functional, cell-based. The conditions noted are these: dose 3-10 µM. Background: A western blot detects proteins with antibodies after separation by electrophoresis.

The subject of data set [13] is A549. In words: Induction of apoptosis in human A549 cells assessed as increase in cleaved caspase-9 expression level at 3 to 10 uM incubated for 48 hrs by western blot analysis. It counts as functional, cell-based. As to conditions: dose 3-10 µM.
For data set [14], the system named is A549. The experiment in a line: Induction of intracellular ROS generation in human A549 cells incubated for 48 hrs by H2DCF-DA staining based flow cytometry. It counts as functional, cell-based. The conditions noted are these: dose 3-10 µM, DDE = dose-dependent effect.
Data set [15] deals with A549. In words: Induction of apoptosis in human A549 cells assessed as decrease in mitochondrial membrane potential by measuring reduction in ratio of red to green fluorescence intensity at 3 to 10 uM incubated for 48 hrs by JC-1 staining based flow cytometry. In kind it is functional, cell-based. The conditions noted are these: dose 3-10 µM.

Molecules are shown by their SMILES. Active and inactive are the calls of the source. The rule behind the calls is not given here.

For orientation: IC50 means the concentration that gives 50% inhibition.

For the molecule `C=C1C(=O)O[C@H]2CC3=C[C@H](C/C(C)=C/[C@@H](OC(=O)CCCCCCC(=O)O[C@@H]4/C=C(\C)C[C@H]5C=C(C[C@@H]6OC(=O)C(=C)[C@H]64)C(=O)O5)[C@H]12)OC3=O`, the IC50 in the data set with A549 [1] was 700 nM; with NCI-H460 it was 3200 nM. In addition, the viability at 12 h, 25 µM in [2] was determined as 59.2%. Moreover, the Activity with A549 [3] was 62.4%; with A549 [5] it was 35.5%; with A549 [6] it was 0.7%; in the data set with A549 [7] it was 0.14%; in the data set with A549 [9], 30.9%; with A549 [10] it was 44.1%. Besides, the results for the Activity with A549 [11] and in the data set with A549 [14] were 10.4% and “Dde”, respectively. Besides, the viability at 3 µM in the data set on A549 [4] is 63.7%. The viability at 10 µM with A549 [8] was 14.6%. In addition, the outcome in the data set with A549 [12], with A549 [13] and with A549 [15] was Active.

The values are drawn from ChEMBL document CHEMBL5136996, “Semisynthesis and Non-Small-Cell Lung Cancer Cytotoxicity Evaluation of Germacrane-Type Sesquiterpene Lactones from Elephantopus scaber” (J Nat Prod, 2022).
